Counter-ions that a name gives are not always drawn. Calls of active or inactive are those of the source. For most assays here, no stated cut-off is given here; in the data, active = IC50 of 5 µM or less and inactive = more.
Experiments:
[1] = molecular target: Metabotropic glutamate receptor 7 (Homo sapiens, UniProt Q14831); test: mGlu7 positive allosteric modulators, dose response, cell-based, calcium mobilization, Galpha15 (AID 743384); assay type: functional
[2] = P. falciparum Dd2 growth inhibitors, dose response, SYBR Green, dry powder samples, set 4 (AID 1159572); assay type: functional, cell-based
[3] = molecular target: RNA-editing ligase 1, mitochondrial (Trypanosoma brucei brucei, UniProt P86926); test: TbREL1 ligase inhibitors, dose response, biochemical, fluorescence, Trypanosoma brucei (AID 1117295); assay type: functional
[4] = Glucagon-like peptide 1 release potency, NCI-H716 cell line, dose-response, half-maximal inhibitory concentration (AID 1117344); assay type: functional, cell-based
[5] = half-maximal inhibitory concentration for glucagon-like peptide-1 release, STC-1 cell line, dose-response (AID 1117345); assay type: functional, cell-based
[6] = molecular target: T1, Aryl hydrocarbon receptor (Homo sapiens, UniProt P35869); conditions: Potency;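 further: confirmatory quantitative high-throughput screen measuring activation of the AhR signaling pathway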
T1 sequence (P35869 whole entry): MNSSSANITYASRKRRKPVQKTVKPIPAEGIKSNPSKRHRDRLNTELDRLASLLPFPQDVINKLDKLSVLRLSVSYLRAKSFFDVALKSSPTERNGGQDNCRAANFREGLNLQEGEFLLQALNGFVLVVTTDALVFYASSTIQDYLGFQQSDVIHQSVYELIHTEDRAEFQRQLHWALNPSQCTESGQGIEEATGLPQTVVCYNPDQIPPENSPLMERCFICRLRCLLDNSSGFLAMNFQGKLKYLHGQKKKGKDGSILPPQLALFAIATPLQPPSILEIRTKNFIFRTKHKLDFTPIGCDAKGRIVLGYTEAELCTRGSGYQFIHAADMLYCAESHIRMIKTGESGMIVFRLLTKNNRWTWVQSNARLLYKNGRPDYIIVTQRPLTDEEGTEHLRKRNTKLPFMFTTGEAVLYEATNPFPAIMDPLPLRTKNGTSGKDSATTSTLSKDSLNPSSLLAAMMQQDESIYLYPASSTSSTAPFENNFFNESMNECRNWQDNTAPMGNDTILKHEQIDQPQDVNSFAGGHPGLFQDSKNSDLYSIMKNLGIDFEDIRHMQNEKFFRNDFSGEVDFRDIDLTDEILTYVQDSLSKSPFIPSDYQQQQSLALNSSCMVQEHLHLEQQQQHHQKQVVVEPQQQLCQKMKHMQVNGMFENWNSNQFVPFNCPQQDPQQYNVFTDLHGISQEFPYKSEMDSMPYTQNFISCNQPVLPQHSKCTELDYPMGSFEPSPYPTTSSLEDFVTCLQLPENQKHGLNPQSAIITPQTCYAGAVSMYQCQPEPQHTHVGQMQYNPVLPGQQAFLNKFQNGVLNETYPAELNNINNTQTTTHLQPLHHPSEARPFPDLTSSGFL

[7] = SNU-C1 cell viability reduction, dose response, CellTiter-Glo luminescence (AID 1117323); assay type: functional, cell-based
[8] = HCT116 cell viability decrease, GSK3B pretreatment – CellTiter-Glo, IC50, dose response (AID 1117339); assay type: functional; conditions: HCT-116
[9] = cytotoxicity toward HCT116 cells – cell-based, CellTiter-Glo luminescence, IC50, dose response (AID 1117332); assay type: functional; conditions: HCT-116
[10] = RKO cell viability reduction, dose response, CellTiter-Glo luminescence (AID 1117322); assay type: functional
[11] = CellTiter-Glo luminescent dose response of DLD-1 viability loss (AID 1117352); assay type: functional
[12] = cytotoxicity toward HT-29 cells – cell-based, CellTiter-Glo luminescence, IC50, dose response (AID 1117330); assay type: functional
[13] = Concentration-dependent survival of SW480 colon cancer line, luminescence detection with CellTiter-Glo, half-maximal inhibitory concentration (AID 1117338); assay type: functional
[14] = cytotoxicity toward Colo320 cells – cell-based, CellTiter-Glo luminescence, IC50, dose response (AID 1117334); assay type: functional; conditions: COLO 320
[15] = Dose-response inhibition of insulin secretion in a rat insulinoma line at 5 mM glucose (AID 1117331); assay type: functional, cell-based; conditions: INS-1E

Chain of Metabotropic glutamate receptor 7 (Q14831 whole entry): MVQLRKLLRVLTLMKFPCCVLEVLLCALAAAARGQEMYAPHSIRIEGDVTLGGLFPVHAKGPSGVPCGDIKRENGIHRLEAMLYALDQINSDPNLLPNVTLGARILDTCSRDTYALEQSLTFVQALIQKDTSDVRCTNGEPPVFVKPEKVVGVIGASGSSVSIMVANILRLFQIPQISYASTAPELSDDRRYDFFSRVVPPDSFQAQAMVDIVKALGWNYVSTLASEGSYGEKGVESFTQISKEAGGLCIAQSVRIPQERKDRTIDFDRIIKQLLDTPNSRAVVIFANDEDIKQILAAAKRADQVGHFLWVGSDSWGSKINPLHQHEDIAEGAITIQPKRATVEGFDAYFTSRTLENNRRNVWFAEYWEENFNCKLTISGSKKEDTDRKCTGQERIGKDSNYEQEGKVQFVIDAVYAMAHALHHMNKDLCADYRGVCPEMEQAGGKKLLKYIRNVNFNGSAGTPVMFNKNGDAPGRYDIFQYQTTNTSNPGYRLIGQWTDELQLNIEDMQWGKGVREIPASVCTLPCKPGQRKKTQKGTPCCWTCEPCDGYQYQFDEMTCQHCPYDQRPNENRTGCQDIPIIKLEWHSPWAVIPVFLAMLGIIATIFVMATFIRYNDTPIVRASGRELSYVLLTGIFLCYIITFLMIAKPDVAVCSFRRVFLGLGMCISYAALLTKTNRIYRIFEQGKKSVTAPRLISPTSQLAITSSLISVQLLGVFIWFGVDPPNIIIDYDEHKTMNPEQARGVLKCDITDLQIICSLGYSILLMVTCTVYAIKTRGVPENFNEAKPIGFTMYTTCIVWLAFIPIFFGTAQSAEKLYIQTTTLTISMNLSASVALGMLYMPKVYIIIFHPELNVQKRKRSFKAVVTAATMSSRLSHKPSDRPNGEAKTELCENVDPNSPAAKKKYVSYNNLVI
Chain of RNA-editing ligase 1, mitochondrial (P86926 whole entry): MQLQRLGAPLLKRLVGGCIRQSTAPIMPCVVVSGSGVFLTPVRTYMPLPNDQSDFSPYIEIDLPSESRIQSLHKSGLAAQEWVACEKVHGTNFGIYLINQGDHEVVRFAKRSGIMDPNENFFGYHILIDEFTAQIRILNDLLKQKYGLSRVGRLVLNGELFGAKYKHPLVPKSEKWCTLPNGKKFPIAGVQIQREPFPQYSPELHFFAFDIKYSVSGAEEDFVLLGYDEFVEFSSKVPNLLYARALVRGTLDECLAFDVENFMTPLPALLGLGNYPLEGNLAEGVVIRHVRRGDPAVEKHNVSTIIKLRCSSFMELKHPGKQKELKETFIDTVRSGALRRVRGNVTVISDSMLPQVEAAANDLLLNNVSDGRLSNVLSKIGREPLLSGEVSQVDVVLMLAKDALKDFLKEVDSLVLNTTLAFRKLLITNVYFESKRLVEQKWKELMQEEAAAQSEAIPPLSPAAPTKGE

Compound: COC(=O)c1ccc(-n2c(C)cc(C(=O)COc3ccc(OC(C)=O)cc3)c2C)cc1
- EC50 [1]: 10000 nM (active)

Compound: COc1ccc2c3c([nH]c2c1)[C@H](CO)N(C(C)=O)CC31CCN(Cc2ccccc2Cl)CC1
- AC50 [2]: 17100 nM (active)

Compound: COC(=O)C1=C(C)N(Cc2ccccc2C(F)(F)F)C(NCc2ccc3c(c2)OCO3)=NC1c1cccc(F)c1 (stereo not given)
- IC50 [3]: > 96600 nM (inactive)

Compound: CC(C)(Oc1ccc(C2CC2(Cl)Cl)cc1)C(=O)O (stereo not given) [CIPROFIBRATE]
- IC50 [4]: > 40000 nM (inactive)
- IC50 [5]: > 40000 nM (inactive)
- AC50 [6]: 70800 nM (inconclusive)

Compound: O=C(Nc1ccc(Cl)cc1)Nc1ccc(Cl)c(C(F)(F)F)c1 [CLOFLUCARBAN]
- IC50 [7]: 9 nM (active)
- IC50 [8]: 3 nM (active)
- IC50 [9]: 3 nM (active)
- IC50 [10]: 3 nM (active)
- IC50 [11]: 27 nM (active)
- IC50 [12]: 1 nM (active)
- IC50 [13]: 9 nM (active)
- IC50 [14]: 3 nM (active)

Compound: CCN(CC)C(C)CN1c2ccccc2Sc2ccccc21 (stereo not given) [ETHOPROPAZINE HYDROCHLORIDE]
- IC50 [15]: > 33300 nM (inactive)
